Measured values taken from article PMC10361207, “Cannabinoid and Opioid Receptor Affinity and Modulation of Cancer-Related Signaling Pathways of Machaeriols and Machaeridiols from Machaerium Pers” (Molecules, 2023).

Legend:
Smad2/3 = assay: Luciferase reporter assay, Smad2/3, T98G; assay type: cell-based; conditions: Homo sapiens; T98G cells; inducer TGF-beta
Protocol: Hela cells (or T98G cells) from ATCC were plated in white opaque 384-well plates at a density of 4300 cells/well in 30 µL of growth medium (DMEM with 10% FBS and 1% Pen/Strep). The next day, the medium was aspirated and replaced with DMEM containing 1% FBS. The cells were transfected with respective plasmids using X-tremeGENE HP DNA transfection reagent (Roche). After 24 h of transfection, the test agents were added to the transfected cells, followed 30 min later by an inducing agent: interleukin 6 (IL-6) for Stat3, TGF-β for Smad, m-wnt3a for Wnt and PMA for AP-1, NF-κB, E2F, Myc, ETS, Notch and Hedgehog. No inducer was added for FoXO and pTK. After 4 h or 6 h of induction, the cells were lysed via the addition of the One-Glo luciferase assay system (Promega; Madison, WI). The light output was detected in a GloMax®-Multi+ Detection System with Instinct® Software (Promega E 8051). This luciferase assay determines if the test agent is able to inhibit the activation of cancer-related signaling pathways. In the case of FoxO, the enhanced luciferase activity via the test agent was assessed.

μ opioid receptor = molecular target: T1, μ opioid receptor (Homo sapiens, UniProt P35372); assay: biochemical; assay type: binding
T1 construct: host or cells: HEK293, stably transfected; membranes
Protocol: HEK293 cells stably transfected with δ, κ and μ opioid subtypes were a generous gift from Roth Laboratories (University of North Carolina at Chapel Hill, N.C., USA). CB and opioid cells were maintained as previously described.
Membranes were purified by first washing the cells with cold PBS and scraping the cells into cold 50 mM Tris-HCl, pH 7.4 buffer, which was centrifuged at 5200× g for 10 min at 4 °C; next, the supernatant was discarded, and the pellet was washed with more Tris-HCl buffer, homogenized via a Sonic Dismembrator (Fisher Scientific, Pittsburgh, PA, USA) and then centrifuged at 24,000× g for 40 min at 4 °C. Finally, the pellet was re-suspended in cold 50 mM Tris-HCl buffer, aliquoted into 2 mL vials and stored at −80 °C. The total membrane protein concentration was measured using a Pierce BCA Protein Assay Kit (Thermo Scientific, Rockford, IL, USA) as per the manufacturer’s protocol.
Cannabinoid and opioid competitive radioligand binding assays were performed as previously described. Saturation experiments were performed for all the receptors to determine the receptor concentration and radioligand dissociation constant (Kd) for the membrane. Percent displacements were evaluated for all the cannabinoid and opioid subtypes with a triplicate of a fixed concentration (10 µg/mL for extracts and fractions and 10 μM for purified compounds). […] Control/test compounds were dissolved in DMSO at 10 μg/mL for extracts and fractions and 10 μM for purified compounds. […] The percent displacement was calculated to represent the ability of the samples to displace the radioligand binding for a given cannabinoid or opioid receptor subtype.
The percent displacement was calculated as follows: 100−binding of compound−nonspecific binding/specific binding×100
The competitive binding assays were performed using 12 serial dilutions of each compound ranging from 0.002 to 300 μM (control compounds were serially diluted from 10 μM to 0.06 nM). The cannabinoid assays were incubated for 90 min at 37 °C with gentle agitation. The opioid assays were incubated for 60 min at room temperature. Bound radioligands were collected on GF/C (cannabinoid) or GF/B plates (opioid) and washed 10 times with ice-cold 50 mM Tris-HCl (pH 7.4)/0.1% BSA (cannabinoid) or ice-cold 50 mM Tris-HCl (pH 7.4) (opioid). Radiodetection was measured with 50 µL (cannabinoid) or 25 µL (opioid) of MicroScint^TM-20 on a TopCount NXT HTS Microplate Scintillation Counter (PerkinElmer, Waltham, MA, USA). The IC50 and Ki values were calculated via a non-linear curve fit model using GraphPad Prism 5.0 software (GraphPad Software, Inc., San Diego, CA, USA). Each compound was tested in triplicate unless stated otherwise.

T1 sequence (P35372 whole entry): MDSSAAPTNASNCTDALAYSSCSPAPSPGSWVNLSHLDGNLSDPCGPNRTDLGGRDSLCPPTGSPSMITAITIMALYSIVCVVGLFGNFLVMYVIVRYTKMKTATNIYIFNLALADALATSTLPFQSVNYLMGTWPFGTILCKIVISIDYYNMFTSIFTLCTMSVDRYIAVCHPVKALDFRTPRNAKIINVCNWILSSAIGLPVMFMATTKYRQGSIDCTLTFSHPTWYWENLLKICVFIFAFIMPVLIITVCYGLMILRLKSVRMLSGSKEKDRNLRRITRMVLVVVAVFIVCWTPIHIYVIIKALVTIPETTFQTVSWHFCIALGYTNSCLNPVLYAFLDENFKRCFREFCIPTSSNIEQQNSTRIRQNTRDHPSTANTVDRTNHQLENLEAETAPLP

Structure (SMILES): C=C(C)[C@H]1CC[C@H](C)C[C@@H]1c1c(O)cc(/C=C/c2ccccc2O)cc1O [compound 6, machaeridiol B]
- IC50 (Smad2/3): 3 µM
- Percent displacement, µ (μ opioid receptor; 10 μM, [3H]-DAMGO): 27.6%
- Ki (μ opioid receptor; NA = not active, read-out: μ Ki ± SEM): 4.73 ± 0.84 µM
